Reference: BindingDB's records for doi:10.1021/jm050524f (The Scripps Research Institute, 2005)

Key:
[1] = target: Hypoxia-inducible factor 1-alpha (Homo sapiens, UniProt Q16665); experiment: Effective concentration to inhibit production of hypoxia inducible factor 1-alpha protein
[2] = Inhibitory concentration against NADH-ubiquinone oxidoreductase
[3] = Inhibitory concentration against NADH ubiquinone oxidoreductase

Sequence of Hypoxia-inducible factor 1-alpha (Q16665 whole entry): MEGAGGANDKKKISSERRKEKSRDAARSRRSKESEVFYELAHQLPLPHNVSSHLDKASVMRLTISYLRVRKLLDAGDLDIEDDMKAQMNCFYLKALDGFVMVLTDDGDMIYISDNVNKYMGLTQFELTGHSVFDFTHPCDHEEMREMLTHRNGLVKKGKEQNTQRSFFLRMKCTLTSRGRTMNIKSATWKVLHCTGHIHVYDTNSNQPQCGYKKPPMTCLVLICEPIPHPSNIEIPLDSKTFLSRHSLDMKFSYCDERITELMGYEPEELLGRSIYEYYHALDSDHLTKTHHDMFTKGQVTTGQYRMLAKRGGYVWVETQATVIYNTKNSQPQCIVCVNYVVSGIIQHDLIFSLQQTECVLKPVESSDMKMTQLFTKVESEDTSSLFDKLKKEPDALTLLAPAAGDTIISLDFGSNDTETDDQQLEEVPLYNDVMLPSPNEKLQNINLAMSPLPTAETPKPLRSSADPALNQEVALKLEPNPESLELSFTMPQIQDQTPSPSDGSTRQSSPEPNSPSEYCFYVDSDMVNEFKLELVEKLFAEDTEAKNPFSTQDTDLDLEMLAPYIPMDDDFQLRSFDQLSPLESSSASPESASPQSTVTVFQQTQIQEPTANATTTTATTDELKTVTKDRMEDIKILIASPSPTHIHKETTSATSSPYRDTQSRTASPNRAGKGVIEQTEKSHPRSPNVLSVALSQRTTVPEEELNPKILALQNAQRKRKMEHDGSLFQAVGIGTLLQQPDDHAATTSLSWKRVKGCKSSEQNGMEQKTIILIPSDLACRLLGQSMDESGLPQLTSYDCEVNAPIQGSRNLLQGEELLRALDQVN

| SMILES | EC50 [1] | IC50 [2] | IC50 [3] |
| --- | --- | --- | --- |
| COc1c(C(C)n2cnc3ncccc32)ccc2c1C=CC(C)(C)O2 (stereo not given) [1-[1-(5-Methoxy-2,2-dimethyl-2H-chromen-6-yl)-ethyl]-1H-imidazo[4,5-b]pyridine] | 35000 nM |  |  |
| C=C(Cc1cc(OC)c(OC)c(OC)c1)c1ccc2c(c1)CCC(C)(C)O2 [2,2-Dimethyl-6-[1-(3,4,5-trimethoxy-benzyl)-vinyl]-chroman] |  | 18 nM | 18 nM |
| COc1cc(COC(=O)c2ccc3c(c2)C=CC(C)(C)O3)cc(OC)c1OC [2,2-Dimethyl-2H-chromene-6-carboxylic acid 3,4,5-trimethoxy-benzyl ester] |  | 55 nM | 55 nM |
